Assay results taken from patent US9169252B2 (BRISTOL-MYERS SQUIBB COMPANY, priority 2014, dated 2015).
Where two headings read alike, the source gives them in different places.

Legend:
[1] = tested on: TLR2 induced IL-6 in peripheral blood mononuclear cells (PBMCs); assay: PBMC TLR2 Induced IL-6 Assay; type: cell-based, human; details: IL-6 by ELISA; for IC50: read-out: Cell IC50; for EC50: read-out: Cell EC50
Summary of the method: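 Lipoteichoic acid at 10 µg/ml served as TLR2 stimulus for 5 hours, following a 30-minute compound pretreatment at 37° C. Cells were Ficoll-isolated human PBMCs, 250000 cells/well, cultured in RPMI plus 10% heat-inactivated FCS.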

[2] = target: IRAK4 (Homo sapiens (Human), UniProt Q9NWZ3); assay: IRAK4 Inhibition Assay; type: biochemical; details: ATP 500 μM, read-out: IRAK4 IC50
Summary of the method: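 Mobility-shift readout: fluorescent substrate and phosphoproduct resolved electrophoretically on Caliper LabChip 3000 after EDTA quench (35 mM). Enzyme reaction of IRAK4, substrates and test compound ran 60 min at room temperature.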

[3] = Homo sapiens, PBMC, PBMC TLR2 Induced IL-6 Assay, lipoteichoic acid stimulation
[4] = Homo sapiens, PBMC, human PBMCs, lipoteichoic acid stimulated
[5] = human PBMCs, lipoteichoic acid stimulated

Sequence of IRAK4 (Q9NWZ3 whole entry, species assumed): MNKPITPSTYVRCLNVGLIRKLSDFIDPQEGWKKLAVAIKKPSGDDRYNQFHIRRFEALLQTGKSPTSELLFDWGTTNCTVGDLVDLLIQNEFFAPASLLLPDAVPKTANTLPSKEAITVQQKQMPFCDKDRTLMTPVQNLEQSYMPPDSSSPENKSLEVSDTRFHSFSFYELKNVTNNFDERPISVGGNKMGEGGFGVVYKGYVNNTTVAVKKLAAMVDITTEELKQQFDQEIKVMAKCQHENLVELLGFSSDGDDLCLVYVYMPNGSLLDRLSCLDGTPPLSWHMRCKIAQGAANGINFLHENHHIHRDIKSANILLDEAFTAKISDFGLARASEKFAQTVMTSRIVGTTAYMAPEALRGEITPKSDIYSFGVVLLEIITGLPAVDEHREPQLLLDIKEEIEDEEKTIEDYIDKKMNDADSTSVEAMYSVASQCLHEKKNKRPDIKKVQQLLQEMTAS

IC50 ([2]; IRAK4 Inhibition Assay) [nM] | IC50 ([2]; IRAK4 0.6 nM) [nM] | Compound | IC50 [1, 3] [nM] | IC50 [1, 4] [nM] | also measured
2.1 |  | CC(C)(O)[C@H](F)CNC(=O)c1cnc(-n2ccc3cc(C#N)cnc32)cc1Nc1cnn(CC(F)(F)F)c1 [Example 371] | 45 |  | 
1.2 |  | CCn1cc(Nc2cc(-n3ccc4cc(C#N)cnc43)ncc2C(=O)NC[C@@H](F)C(C)(C)O)cn1 [Example 372] | 2 |  | 
2.4 |  | CC(C)(O)[C@H](F)CNC(=O)c1cnc(-n2ccc3cc(C#N)cnc32)cc1Nc1cnn(C2CCOCC2)c1 [Example 373] | 71 |  | 
3.3 |  | CC(C)(O)[C@H](F)CNC(=O)c1cnc(-n2cnc3cc(Cl)cnc32)cc1Nc1cnn(CCC#N)c1 [Example 374] | 85 |  | 
1.8 |  | CC(C)(O)[C@H](F)CNC(=O)c1cnc(-n2cnc3cc(C#N)cnc32)cc1Nc1cnn(CC(F)F)c1 [Example 375] | 156 |  | 
2.1 |  | CC(C)(O)[C@H](F)CNC(=O)c1cnc(-n2ncc3cc(C#N)cnc32)cc1Nc1cnn(CCC#N)c1 [Example 376] | 349 |  | 
2.7 |  | CC(C)(O)[C@H](F)CNC(=O)c1cnc(-n2ncc3cc(Cl)cnc32)cc1Nc1cnn(CCC#N)c1 [Example 377] | 440 |  | 
2.9 |  | CCCn1cc(Nc2cc(-n3ncc4cc(C#N)cnc43)ncc2C(=O)NC[C@@H](F)C(C)(C)O)cn1 [Example 380] | 228 |  | 
2.5 |  | CCCn1cc(Nc2cc(-n3ncc4cc(Cl)cnc43)ncc2C(=O)NC[C@@H](F)C(C)(C)O)cn1 [Example 381] | 41 |  | 
2.5 |  | CCCn1cc(Nc2cc(-n3cnc4cc(Cl)cnc43)ncc2C(=O)NC[C@@H](F)C(C)(C)O)cn1 [Example 382] | 482 |  | 
1.4 |  | CCCn1cc(Nc2cc(-n3ccc4cc(C#N)cnc43)ncc2C(=O)NC[C@@H](F)C(C)(C)O)cn1 [Example 383] | 113 |  | 
2.3 |  | CC(C)(O)[C@H](F)CNC(=O)c1cnc(-n2ncc3cc(F)cnc32)cc1Nc1cnn(CC(F)F)c1 [Example 384] | 24 |  | 
0.9 |  | CC(C)(O)[C@H](F)CNC(=O)c1cnc(-n2ncc3cc(C#N)cnc32)cc1Nc1cnn(S(C)(=O)=O)c1 [Example 385] | 40 |  | 
1.5 |  | CCNC(=O)n1cc(Nc2cc(-n3ncc4cc(C#N)cnc43)ncc2C(=O)NC[C@@H](F)C(C)(C)O)cn1 [Example 386] | 1080 |  | EC50 [1, 3]: 79 nM
11.2 |  | CC(C)NC(=O)c1cnc(-n2ncc3cc(C#N)cnc32)cc1Nc1cnn(CC(F)F)c1 [Example 388] | 245 |  | 
4 |  | CCCNC(=O)c1cnc(-n2ncc3cc(C#N)cnc32)cc1Nc1cnn(CC(F)F)c1 [Example 389] | 241 |  | 
17 |  | CC(C)(C)NC(=O)c1cnc(-n2ncc3cc(C#N)cnc32)cc1Nc1cnn(CC(F)F)c1 [Example 390] | 199 |  | 
6.2 |  | CC(C)CNC(=O)c1cnc(-n2ncc3cc(C#N)cnc32)cc1Nc1cnn(CC(F)F)c1 [Example 391] | 241 |  | 
7.1 |  | CCOCCNC(=O)c1cnc(-n2ncc3cc(C#N)cnc32)cc1Nc1cnn(CC(F)F)c1 [Example 392] | 16 |  | 
3.5 |  | CCNC(=O)c1cnc(-n2ncc3cc(C#N)cnc32)cc1Nc1cnn(CC(F)F)c1 [Example 393] | 250 |  | 
 | 2.2 | CC(C)(F)[C@H](F)CNC(=O)c1cnc(-n2ncc3cc(C#N)cnc32)cc1Nc1cnn(CC(F)F)c1 [Example 395] |  | 85 | 
 | 8.6 | CC(C)(O)[C@H]1CC[C@H](NC(=O)c2cnc(-n3ncc4cc(C#N)cnc43)cc2Nc2cnn(CC(F)F)c2)CC1 [Example 396] |  | 157 | 
 | 6.6 | CC(C)(O)C(F)(F)CNC(=O)c1cnc(-n2ncc3cc(C#N)cnc32)cc1Nc1cnn(CC(F)F)c1 [Example 397] |  | 210 | 
 | 4.9 | Cn1cc(Nc2cc(-n3ncc4cc(Cl)cnc43)ncc2C(=O)NC[C@@H](F)C(C)(C)O)cn1 [Example 398] |  | 277 | 
 | 1.3 | Cn1cc(Nc2cc(-n3ccc4cc(C#N)cnc43)ncc2C(=O)NC[C@@H](F)C(C)(C)O)cn1 [Example 399] |  | 24 | 
 | 7.8 | CC(C)(O)[C@H](F)CNC(=O)c1cnc(-n2cnc3cc(Cl)cnc32)cc1Nc1cnn(C(F)F)c1 [Example 400] |  | 156 | 
 | 5.7 | CC(C)(O)[C@H](F)CNC(=O)c1cnc(-n2cnc3cc(C#N)cnc32)cc1Nc1cnn(C(F)F)c1 [Example 401] |  | 485 | 

IC50 ([2]; IRAK4 Inhibition Assay) [nM] | IC50 ([2]; IRAK4 0.6 nM) [nM] | Compound | IC50 [1, 3] [nM] | IC50 [1, 4] [nM] | also measured
 | 2.5 | CC(C)(F)[C@H](F)CNC(=O)c1cnc(-n2cnc3cc(Cl)cnc32)cc1Nc1cnn(CC(F)F)c1 [Example 402] |  | 412 | 
 | 2.5 | CC(C)(F)[C@H](F)CNC(=O)c1cnc(-n2cnc3cc(C#N)cnc32)cc1Nc1cnn(CC(F)F)c1 [Example 403] |  | 147 | 
 | 1.1 | CC(C)(O)[C@H](F)CNC(=O)c1cnc(-n2ncc3cc(C#N)cnc32)cc1Nc1cc(C2CC2)n[nH]1 [Example 404] |  | 164 | 
 | 6.2 | Cc1cc(Nc2cc(-n3ncc4cc(C#N)cnc43)ncc2C(=O)NC[C@@H](F)C(C)(C)O)[nH]n1 [Example 405] |  | 561 | 
 | 4.8 | CC(C)c1cc(Nc2cc(-n3ncc4cc(C#N)cnc43)ncc2C(=O)NC[C@@H](F)C(C)(C)O)[nH]n1 [Example 406] |  | 66 | 
 | 3.1 | CC(C)(O)[C@H](F)CNC(=O)c1cnc(-n2ncc3cc(C#N)cnc32)cc1Nc1ccn(CC(F)F)n1 [Example 407] |  | 287 | 
 | 1.8 | CC(C)(O)[C@H](F)CNC(=O)c1cnc(-n2ncc3cc(C#N)cnc32)cc1Nc1ccn(CC(F)(F)F)n1 [Example 408] |  | 73 | 
 | 17.5 | Cn1nccc1Nc1cc(-n2ncc3cc(C#N)cnc32)ncc1C(=O)NC[C@@H](F)C(C)(C)O [Example 409] |  |  | EC50 [1, 4]: 463 nM
 | 1.5 | CC(C)(O)[C@H](F)CNC(=O)c1cnc(-n2ncc3cc(C#N)cnc32)cc1Nc1cnn(-c2ncccn2)c1 [Example 410] |  |  | EC50 [1, 4]: 92 nM
 | 1.6 | CC(C)(O)[C@H](F)CNC(=O)c1cnc(-n2ncc3cc(C#N)cnc32)cc1Nc1cnn(-c2ncc(F)cn2)c1 [Example 411] |  |  | EC50 [1, 4]: 51 nM
 | 3.6 | CC(C)(O)[C@H](F)CNC(=O)c1cnc(-n2ncc3cc(C#N)cnc32)cc1Nc1cc(-c2ccccc2)n[nH]1 [Example 412] |  | 53 | 
 | 7 | Cc1cc(Nc2cc(-n3ncc4cc(C#N)cnc43)ncc2C(=O)NC[C@@H](F)C(C)(C)O)n(C)n1 [Example 413] |  | 382 | 
 | 14.8 | CC(C)Nc1cc(-n2ccc3cc(C#N)cnc32)ncc1C(=O)NC12CCC(O)(CC1)C2 [Example 415] |  |  | EC50 [1, 4]: 286 nM
 | 1.9 | CC(C)(O)[C@H](F)CNC(=O)c1cnc(-n2ccc3cc(C#N)cnc32)cc1Nc1cccc(S(N)(=O)=O)c1 [Example 416] |  |  | EC50 [1, 4]: 58 nM
 | 5.5 | CC(C)Nc1cc(-n2ccc3cc(C#N)cnc32)ncc1C(=O)NCCCOC(C)(C)C [Example 417] |  |  | EC50 [1, 4]: 171 nM
 | 4.4 | COc1cccc(Nc2cc(-n3ccc4cc(C#N)cnc43)ncc2C(=O)NC[C@@H](F)C(C)(C)O)c1 [Example 418] |  |  | EC50 [1, 4]: 65 nM
 | 4.8 | CC(C)(O)/C=C/Nc1cc(-n2ccc3cc(C#N)cnc32)ncc1C(=O)NC[C@@H](F)C(C)(C)O [Example 419] |  |  | EC50 [1, 4]: 107 nM
 | 4.4 | CC(C)Nc1cc(-n2ccc3cc(C#N)cnc32)ncc1C(=O)N[C@H]1CC[C@@](F)(c2nccn2C)CC1 [Example 420] |  |  | EC50 [1, 4]: 186 nM
 | 1.9 | CC(C)(O)[C@H](F)CNC(=O)c1cnc(-n2ccc3cc(C#N)cnc32)cc1Nc1ccc2ncoc2c1 [Example 421] |  | 167 | 
 | 2.3 | CC(O)CCNc1cc(-n2ccc3cc(C#N)cnc32)ncc1C(=O)NC[C@@H](F)C(C)(C)O (stereo partly shown) [Example 422] |  |  | EC50 [1, 5]: 4 nM
 | 6 | Cn1nccc1Nc1cc(-n2ccc3cc(C#N)cnc32)ncc1C(=O)NC[C@@H](F)C(C)(C)O [Example 424] |  |  | EC50 [1, 5]: 338 nM
 | 1.8 | CC(C)(O)[C@H](F)CNC(=O)c1cnc(-n2ccc3cc(C#N)cnc32)cc1NCCC(F)(F)F [Example 425] |  |  | EC50 [1, 4]: 154 nM
 | 4.6 | CC(C)(O)[C@H]1CC[C@H](NC(=O)c2cnc(-n3ccc4cc(F)cnc43)cc2NC2CC2)CC1 [Example 428] |  |  | EC50 [1, 4]: 361 nM
 | 1.5 | CC(C)(O)[C@H]1CC[C@H](NC(=O)c2cnc(-n3ccc4cc(C#N)cnc43)cc2NC2CC2)CC1 [Example 429] |  |  | EC50 [1, 4]: 92 nM
 | 2.1 | CC(C)(O)[C@H](F)CNC(=O)c1cnc(-n2ccc3cc(C#N)cnc32)cc1Nc1cccc(C#N)c1F [Example 430] |  |  | EC50 [1, 4]: 208 nM
 | 2.1 | CC(C)(O)[C@H](F)CNC(=O)c1cnc(-n2ccc3cc(C#N)cnc32)cc1Nc1cccc(-c2ncc[nH]2)c1 [Example 431] |  |  | EC50 [1, 4]: 106 nM
 | 2.1 | C[C@@H](CO)Nc1cc(-n2ccc3cc(F)cnc32)ncc1C(=O)N[C@H]1CC[C@H](C(C)(C)O)CC1 [Example 432] |  |  | EC50 [1, 4]: 80 nM
